# Laboratory results taken from PubChem BioAssay AID1053130 (The Scripps Research Institute Molecular Screening Center, 2014).
# Activity calls are given as the source filed them. No rule for the calls is given here.
# Tested on: Jurkat cell viability, ATP luminescence
# Assay: Jurkat T cell cytotoxicity, late-stage follow-up, cytotoxicity control for T. brucei MetRS inhibitor project, luminescence, round 3 (AID 1053130)
row,Compound,IC50
1,CCN(CC)C(=O)C(=O)c1cn(CC(=O)Nc2cc(Oc3ccc(OC)cc3)cc(C(F)(F)F)c2)c2ccccc12,11.3 µM (inactive)
2,CCN(CC)C(=O)C(=O)c1cn(CC(=O)Nc2cc(Oc3ccccc3F)cc(C(F)(F)F)c2)c2ccccc12,> 83.3 µM (inactive)
3,Nc1c(Cl)ncnc1Nc1ccc(C(=O)O)cc1,> 83.3 µM (inactive)
4,CCN(CC)C(=O)C(=O)c1cn(CC(=O)Nc2cc(Oc3ccc(F)cc3)cc(C(F)(F)F)c2)c2ccccc12,50.1 µM (inactive)
5,CCN(CC)C(=O)Cc1cn(CC(=O)Nc2cccc(C(F)(F)F)c2)c2ccccc12,> 83.3 µM (inactive)
6,CCN(CC)C(=O)C(=O)c1cn(CC(=O)Nc2cc(Oc3ccccc3OC)cc(C(F)(F)F)c2)c2ccccc12,> 83.3 µM (inactive)
7,O=C(Cn1cc(C(=O)C(=O)NCc2ccccc2)c2ccccc21)Nc1cc(Oc2ccccc2)cc(C(F)(F)F)c1,63.9 µM (inactive)
8,CCN(CC)C(=O)C(=O)c1cn(CCNc2cccc(C(F)(F)F)c2)c2ccccc12,41.1 µM (inactive)
9,CCN(CC)C(=O)C(=O)c1cn(CC(=O)Nc2cccc(C(F)(F)F)c2)c2ccccc12,57.2 µM (inactive)
10,CCN(CC)C(=O)C(=O)c1cn(CCNc2cc(Oc3ccccc3)cc(C(F)(F)F)c2)c2ccccc12,34.8 µM (inactive)
11,O=C(Cc1ccc(Nc2nc3ccc(Br)cc3[nH]2)cc1)NCCc1cccs1,> 27.8 µM (inactive)
12,CCN(CC)C(=O)C(=O)c1cn(CC(=O)Nc2cc(Oc3ccccc3)cc(C(F)(F)F)c2)c2ccccc12,21 µM (inactive)
